BindingDB's records for patent US11680056 (Xinthera, 2023)
Where “and” joins values, the source holds several entries; their conditions need not be identical. Equal entries are not always repeated.

Target: T1, MAP kinase-activated protein kinase 2 [46-400] (Homo sapiens, UniProt P49137)
T1 construct: 46-400
Experiment: Biochemical Assay
Protocol: This study evaluates the inhibitory potency of invention compound on p38/MK2 pathway vs p38/PRAK pathway. More specially the compound concentration (IC50) was determined that inhibited half of the maximal activation of MK2 or PRAK by p38. MK2 activation study was set up without or with a serial of 10-point 1:3 dilution of invention compound at top dose of […], and PRAK activation study was set up without or with a serial of 10-point 1:3 dilution of invention compound at top dose of 300 μM. The MK2 and PRAK activity were determined by the phosphorylation level of HSP27 peptide conjugated with FITC. […] After 2 h incubation of the reaction mixture with various concentration of invention compound (200 nL), 60 μL 1×IMAP solution Mixture (Molecular Devices, Cat R8127) was added to the reaction mixture and incubated for another half hour. The signal was then read by Synergy Neo2 Multi-Mode Microplate Reader with filter setting (Ex/Em=485 nm/FITC FP-P pol 528 nm & FITC FP-S pol 528 nm). The signal was then normalized to vehicle control and fitted in Xfit to generate IC50. The selectivity of MK2 over PRAK was calculated by the formular Selectivity=IC50 of PRAK/IC50 of MK2.

T1 sequence (P49137 46-400): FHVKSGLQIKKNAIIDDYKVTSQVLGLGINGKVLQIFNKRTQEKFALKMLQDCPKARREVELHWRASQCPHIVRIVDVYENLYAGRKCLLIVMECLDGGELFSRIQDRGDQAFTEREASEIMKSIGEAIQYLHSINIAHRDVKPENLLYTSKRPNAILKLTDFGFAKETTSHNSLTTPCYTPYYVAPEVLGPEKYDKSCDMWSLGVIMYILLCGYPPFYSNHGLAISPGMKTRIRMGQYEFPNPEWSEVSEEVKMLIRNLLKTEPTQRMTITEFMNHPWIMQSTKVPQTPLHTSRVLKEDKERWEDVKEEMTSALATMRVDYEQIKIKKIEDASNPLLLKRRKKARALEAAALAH

SMILES	IC50
Cc1cnnc(COc2cc(C)n(-c3cc(-c4ccnc(C(C)(C)O)n4)ncc3C)c(=O)c2Cl)c1 [US11680056, Example 28A]	> 10000 nM
Cc1cnc(-n2nc(C(C)(C)O)cc2C2CC2)cc1-n1c(C)cc(OCc2ncc(F)cc2F)c(Cl)c1=O [US11680056, Example 20A]	2000 nM and > 10000 nM
Cc1nn(-c2ccnc(C(C)(C)O)n2)cc1-n1c(C)cc(OCc2ncc(F)cc2F)c(Cl)c1=O [US11680056, Example 30]	631 nM
